Measured values from patent publication US10512269B2, “Herbicidal compounds” (Syngenta Participations AG, priority 2015, dated 2019).

How the values were obtained:
Test in all cases: B1 Post-emergence efficacy, glasshouse pot test
Format in all cases: in vivo
Conditions in all cases: post-emergence spray, evaluated after 13 days
[1] = system: Amaranthus retoflexus (AMARE)
Protocol: (§1) Seeds of a variety of test species are sown in standard soil in pots: —Solanum nigrum (SOLNI), Amaranthus retoflexus (AMARE), Setaria faberi (SETFA), Echinochloa crus-galli (ECHCG), Ipomoea hederacea (IPOHE), Lolium perenne (LOLPE). After 8 days cultivation (post-emergence) under controlled conditions in a glasshouse (at 24/16° C., day/night; 14 hours light; 65% humidity), the plants are sprayed with an aqueous spray solution derived from the formulation of the technical active ingredient in acetone/water (50:50) solution containing 0.5% Tween 20 (polyoxyethelyene sorbitan monolaurate, CAS RN 9005-64-5). Compounds are applied at 1000 g/ha and 250 g/ha. The test plants are then grown in a glasshouse under controlled conditions in a glasshouse (at 24/16° C., day/night; 14 hours light; 65% humidity) and watered twice daily. After 13 days, the test is evaluated for the percentage damage caused to the plant. The biological activities are assessed on a five point scale (5=80-100%; 4=60-79%; 3=40-59%; 2=20-39%; 1=0-19%). A blank value in the table is indicative that the compound was not tested on that species.

[2] = system: Echinochloa crus-galli (ECHCG)
Protocol: as §1

[3] = system: Ipomoea hederacea (IPOHE)
Protocol: as §1

[4] = system: Lolium perenne (LOLPE)
Protocol: as §1

[5] = system: Setaria faberi (SETFA)
Protocol: as §1

[6] = system: Solanum nigrum (SOLNI)
Protocol: as §1

Structure (SMILES) | percentage damage caused to the plant, five point scale, AMARE ([1]; 250 g/ha) | percentage damage caused to the plant, five point scale, AMARE ([1]; 1000 g/ha) | percentage damage caused to the plant, five point scale, ECHCG ([2]; 250 g/ha) | percentage damage caused to the plant, five point scale, ECHCG ([2]; 1000 g/ha) | percentage damage caused to the plant, five point scale, IPOHE ([3]; 250 g/ha) | percentage damage caused to the plant, five point scale, IPOHE ([3]; 1000 g/ha) | percentage damage caused to the plant, five point scale, LOLPE ([4]; 250 g/ha) | percentage damage caused to the plant, five point scale, LOLPE ([4]; 1000 g/ha) | percentage damage caused to the plant, five point scale, SETFA ([5]; 250 g/ha) | percentage damage caused to the plant, five point scale, SETFA ([5]; 1000 g/ha) | percentage damage caused to the plant, five point scale, SOLNI ([6]; 250 g/ha) | percentage damage caused to the plant, five point scale, SOLNI ([6]; 1000 g/ha)
C#CCn1c(=O)c(-c2c(Cl)ccc(Cl)c2OCc2cnc(Cl)s2)c(O)c2scnc21 [Compound 1.19, 6-[3,6-dichloro-2-[(2-chlorothiazol-5-yl)methoxy]phenyl]-7-hydroxy-4-prop-2-ynyl-thiazolo[4,5-b]pyridin-5-one] | 5 (5=80-100%) | 5 (5=80-100%) | 5 (5=80-100%) | 5 (5=80-100%) | 5 (5=80-100%) | 5 (5=80-100%) | 5 (5=80-100%) | 5 (5=80-100%) | 5 (5=80-100%) | 5 (5=80-100%) | 5 (5=80-100%) | 5 (5=80-100%)
O=c1c(-c2c(Cl)ccc(Cl)c2OCc2cnc(Cl)s2)c(O)c2scnc2n1CC(F)F [Compound 3.19] | 5 (5=80-100%) | 5 (5=80-100%) | 4 (4=60-79%) | 5 (5=80-100%) | 5 (5=80-100%) | 5 (5=80-100%) | 5 (5=80-100%) | 5 (5=80-100%) | 5 (5=80-100%) | 5 (5=80-100%) | 5 (5=80-100%) | 5 (5=80-100%)
C#CCN1c2ncsc2C(O)=C(c2c(Cl)ccc(Cl)c2OCc2ccccc2)S1(=O)=O [Compound 5.22] | 2 (2=20-39%) | 1 (1=0-19%) | 2 (2=20-39%) | 2 (2=20-39%) | 2 (2=20-39%) | 2 (2=20-39%) | 2 (2=20-39%) | 2 (2=20-39%) | 1 (1=0-19%) | 2 (2=20-39%) | 1 (1=0-19%) | 1 (1=0-19%)
C#CCn1c(=O)c(-c2c(Cl)ccc(Cl)c2OCc2ccccc2)c(O)c2nsnc21 [Compound 9.22, 6-(2-benzyloxy-3,6-dichloro-phenyl)-7-hydroxy-4-prop-2-ynyl-[1,2,5]thiadiazolo[3,4-b]pyridin-5-one] | 4 (4=60-79%) | 5 (5=80-100%) | 2 (2=20-39%) | 3 (3=40-59%) | 5 (5=80-100%) | 5 (5=80-100%) | 4 (4=60-79%) | 5 (5=80-100%) | 2 (2=20-39%) | 5 (5=80-100%) | 4 (4=60-79%) | 5 (5=80-100%)
O=S1(=O)C(c2c(Cl)ccc(Cl)c2OCc2ccccc2)=C(O)c2scnc2N1CC(F)F [Compound 13.22] | 3 (3=40-59%) | 2 (2=20-39%) | 1 (1=0-19%) | 2 (2=20-39%) | 4 (4=60-79%) | 5 (5=80-100%) | 2 (2=20-39%) | 2 (2=20-39%) | 1 (1=0-19%) | 2 (2=20-39%) | 3 (3=40-59%) | 4 (4=60-79%)
C#CCn1c(=O)c(-c2c(F)ccc(Cl)c2OCc2ccccc2)c(O)c2csnc21 [Compound 15.22] | 4 (4=60-79%) | 5 (5=80-100%) | 2 (2=20-39%) | 3 (3=40-59%) | 4 (4=60-79%) | 3 (3=40-59%) | 3 (3=40-59%) | 4 (4=60-79%) | 1 (1=0-19%) | 3 (3=40-59%) | 4 (4=60-79%) | 5 (5=80-100%)
